This is an account of results in US20110144040A1, “Acteoside and acteoside-rich plant extracts for increasing athletic performance in humans” (MN Intellectual Property Corp, LLC, priority 2009, published 2011).

Assay [1] concerns free-radical induced oxidative stress. The note with it: J Pharm Pharmacol 2004 56(6) 743-8; cited from earlier work.
The subject of assay [2] is prostaglandin biosynthesis. The conditions noted are these: Arch Pharm Res 2006 29(6), 508-13; cited from earlier work.
Assay [3] relates to athletic performance in humans. Description: oral acteoside supplementation for athletic performance in exercising humans. Type of assay: in vivo, human. The conditions noted are these: peroral, used according to recommended protocols. The source says:
Athletic performance is defined as any sporting activity where muscle strength and/or endurance are integral to individual performance, and is inclusive of both aerobic and anaerobic metabolic conditions. This includes active athletic competition, such as baseball, football, running, or Track & Field. It also includes any exercise activity designed to improve physical performance, directly or indirectly, via an improvement in muscle protein content (size), strength, and/or endurance, such as resistance training (circuit equipment, weight training), aerobics, Pilates, and/or calisthenics. Any improvement in athletic performance must include objective increases in speed, strength, muscle size (protein content), and/or endurance. It may also involve improved recovery from fatigue following exercise or athletic competition.
This includes an ability to increase muscle strength, muscle power, endurance, and muscle protein content (size), as well as to reduce fatigue and facilitate recovery following intense exercise or athletic competition. The benefits appear almost immediately in some cases, but are more likely to occur after several weeks of regular use of acteoside or extracts containing acteoside. […]
During the course of developing this invention, an effective oral daily dosage of acteoside to improve athletic performance was determined to be between 25 mg to 2,500 mg. […]

As to `C[C@@H]1O[C@@H](O[C@@H]2[C@@H](O)[C@H](OCCc3ccc(O)c(O)c3)O[C@H](CO)[C@H]2OC(=O)/C=C/c2ccc(O)c(O)c2)[C@H](O)[C@H](O)[C@H]1O` [acteoside], the “inhibition of free-radical induced oxidative stress” value in assay [1] is “strong inhibitor”. The “inhibition of prostaglandin biosynthesis” value in assay [2] was “strong inhibitor”. Also, the improving athletic performance entry in assay [3] is listed as “effective in-vivo peroral agents for improving athletic performance”.
